Laboratory results reported in patent US20230089073A1 (Carmot Therapeutics, Inc., priority 2021, published 2023).
pEC50: −log10 of the molar value.

The compounds below were run against T1, human GLP-1 receptor (Homo sapiens, UniProt P43220) (assay: GLP-1R cAMP Assay). Settings: cAMP accumulation in CHO cells stably overexpressing the human GLP-1 receptor; 30 min treatment; HitHunter cAMP kit; read-out: EC50.
T1 construct: expressed in transfected cells
Assay type: cell-based
Procedure, shortened: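 Luminescent enzyme-complementation detection of cAMP, read after cell lysis and overnight incubation, with dose-response curve fitting. Stimulation lasted 30 min, using 20-point triplicate dosing on CHO cells (10,000 per well) stably overexpressing human GLP-1R.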

T1 sequence (P43220 24-463): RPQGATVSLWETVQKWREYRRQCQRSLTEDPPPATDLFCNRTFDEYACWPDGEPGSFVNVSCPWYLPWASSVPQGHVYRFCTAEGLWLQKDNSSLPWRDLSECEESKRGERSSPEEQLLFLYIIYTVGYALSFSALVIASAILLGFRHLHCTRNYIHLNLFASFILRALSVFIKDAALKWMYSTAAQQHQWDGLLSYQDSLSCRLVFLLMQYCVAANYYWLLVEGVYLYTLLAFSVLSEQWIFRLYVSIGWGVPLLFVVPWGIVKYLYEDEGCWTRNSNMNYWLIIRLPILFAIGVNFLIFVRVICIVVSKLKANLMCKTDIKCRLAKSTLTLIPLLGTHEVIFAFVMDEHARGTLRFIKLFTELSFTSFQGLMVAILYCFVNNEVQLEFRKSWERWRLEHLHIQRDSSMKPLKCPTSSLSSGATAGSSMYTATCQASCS

Row | pEC50 | Structure (SMILES)
1 | < 6.30 | N#Cc1ccc(Oc2cccc(C(=O)N3CCN(Cc4nc5ccc(C(=O)O)cc5n4C[C@@H]4CCO4)CC3)c2)c(F)c1 [Example 10, (S)-2-((4-(3-(4-Cyano-2-fluorophenoxy)benzoyl)piperazin-1-yl)methyl)-1-(oxetan-2-ylmethyl)-1H-benzo[d]imidazole-6-carboxylic acid]
2 | < 6.30 | CCn1cncc1Cn1c(CN2CCN(C(=O)c3cccc(CN(C)c4ccc(C)cc4Cl)c3)CC2)nc2ccc(C(=O)O)cc21 [Compound 77, 2-{[4-(3-{[(2-chloro-4-methylphenyl)(methyl)amino]methyl}benzoyl)piperazin-1-yl]methyl}-1-[(1-ethyl-1H-imidazol-5-yl)methyl]-1H-1,3-benzodiazole-6-carboxylic acid]
3 | > 7.30 | CCn1cncc1Cn1c(CN2CCC(Cc3cccc(COc4ccc(Cl)cc4C#N)c3)CC2)nc2ccc(C(=O)O)cc21 [Compound 165, 2-{[4-({3-[(4-chloro-2-cyanophenoxy)methyl]phenyl}methyl)piperidin-1-yl]methyl}-1-[(1-ethyl-1H-imidazol-5-yl)methyl]-1H-1,3-benzodiazole-6-carboxylic acid]
4 | 6.30 to 7.30 | Cc1ccc(N(C)c2cc(C(=O)N3CCN(Cc4nc5ccc(C(=O)O)cc5n4C[C@@H]4CCO4)CC3)ccn2)c(Cl)c1 [Example 99, (S)-2-((4-(2-((2-Chloro-4-methylphenyl)(methyl)amino)isonicotinoyl)piperazin-1-yl)methyl)-1-(oxetan-2-ylmethyl)-1H-benzo[d]imidazole-6-carboxylic acid]
5 | > 7.30 | O=C(O)c1ccc2nc(CN3CCC(Cc4ccc(F)c(COc5ccc(Cl)cc5Cl)c4)CC3)n(C[C@@H]3CCO3)c2c1 [Compound 162, 2-{[4-({3-[(2,4-dichlorophenoxy)methyl]-4-fluorophenyl}methyl)piperidin-1-yl]methyl}-1-{[(2S)-oxetan-2-yl]methyl}-1H-1,3-benzodiazole-6-carboxylic acid]
6 | 6.30 to 7.30 | Cc1ccc2oc3cc(C(=O)N4CCN(Cc5nc6ccc(C(=O)O)cc6n5C[C@@H]5CCO5)CC4)ccc3c(=O)c2c1 [Example 44, (S)-2-((4-(7-Methyl-9-oxo-9H-xanthene-3-carbonyl)piperazin-1-yl)methyl)-1-(oxetan-2-ylmethyl)-1H-benzo[d]imidazole-6-carboxylic acid]
7 | < 6.30 | CN(c1cc(C(=O)N2CCN(Cc3nc4ccc(C(=O)O)cc4n3C[C@@H]3CCO3)CC2)ncn1)C1CCCCC1 [Example 61, (S)-2-((4-(6-(Cyclohexyl(methyl)amino)pyrimidine-4-carbonyl)piperazin-1-yl)methyl)-1-(oxetan-2-ylmethyl)-1H-benzo[d]imidazole-6-carboxylic acid]
8 | < 6.30 | COC(=O)c1ccc2nc(CN3CCN(C(=O)c4cccc(Oc5ccc(C)cc5Cl)c4)CC3)n(C[C@@H]3CCO3)c2c1 [Compound 23, methyl 2-({4-[3-(2-chloro-4-methylphenoxy)benzoyl]piperazin-1-yl}methyl)-1-{[(2S)-oxetan-2-yl]methyl}-1H-1,3-benzodiazole-6-carboxylate]
9 | > 7.30 | N#Cc1cc(F)ccc1OCc1nccc(OC2CCN(Cc3nc4c(F)cc(C(=O)O)cc4n3C[C@@H]3CCO3)CC2)n1 [Compound 307]
10 | > 7.30 | N#Cc1ccc(OCc2nccc(OC3CCN(Cc4nc5ccc(C(=O)O)nc5n4C[C@@H]4CCO4)CC3)n2)c(F)c1 [Compound 373]
11 | < 6.30 | N#Cc1cc(Cl)ccc1OCc1cccc(OC2CCN(Cc3nc4ccc(C(=O)O)cc4n3Cc3ncco3)CC2)n1 [Compound 251, 2-{[4-({6-[(4-chloro-cyanophenoxy)methyl]pyridin-2-yl}oxy)piperidin-1-yl]methyl}-1-[(1,3-oxazol-2-yl)methyl]-1H-1,3-benzodiazole-6-carboxylic acid]
12 | > 7.30 | CCn1cncc1Cn1c(CN2CCN(C(=O)c3cc(N(C)c4ccc(C)cc4Cl)ccc3C)CC2)nc2ccc(C(=O)O)cc21 [Compound 76, 2-[(4-{5-[(2-chloro-4-methylphenyl)(methyl)amino]-2-methylbenzoyl}piperazin-1-yl)methyl]-1-[(1-ethyl-1H-imidazol-5-yl)methyl]-1H-1,3-benzodiazole-6-carboxylic acid]
